The target of this assay is T1, ABCB1 (multidrug resistance protein 1, P-glycoprotein) (Homo sapiens, UniProt P08183).
T1 construct: recombinant human ABCB1 in MDR1-Sf9 membranes
Kind of assay: vanadate-sensitive ATPase assay (Pi release) in MDR1-Sf9 membranes; inhibition of verapamil-stimulated activity, biphasic in the activation test. In kind it is biochemical. As to conditions: read-out: EC50 (the source's name).

Consider `COc1cccc(OC)c1C(=O)/C=C/c1c2ccccc2nc2ccccc12` [1C, (2E)-3-(acridin-9-yl)-1-(2,6-dimethoxyphenyl)prop-2-en-1-one], for which the IC50 was determined as 5.53 ± 0.97 µM.

The values are drawn from PMC12071533, “Acridine-Based Chalcone 1C and ABC Transporters” (International Journal of Molecular Sciences, 2025).
